From ChEMBL document CHEMBL4699584, “Bioassay-Directed Isolation of Antibacterial Metabolites from an Arthropod-Derived Penicillium chrysogenum” (2020)

Legend:
Format in all cases: functional
Staphylococcus aureus = experiment: Antibacterial activity against methicillin-resistant Staphylococcus aureus assessed as reduction in microbial growth by broth microdilution method
Enterococcus faecalis = experiment: Antibacterial activity against Enterococcus faecalis assessed as reduction in microbial growth by broth microdilution method
Escherichia coli = experiment: Antibacterial activity against ESBL producing Escherichia coli assessed as reduction in microbial growth by broth microdilution method

| SMILES | MIC (Staphylococcus aureus) [µg/mL] | MIC (Enterococcus faecalis) [µg/mL] | MIC (Escherichia coli) [µg/mL] |
| --- | --- | --- | --- |
| C[C@H]1[C@@H]2O[C@@H]2C(=O)[C@]2(C)CC[C@H]3[C@H]4[C@](C)(CC[C@]4(C)C(=O)O)C[C@]132 | 4 | 32 | 32 |
| C[C@H]1C=CC(=O)[C@]2(C)CC[C@H]3[C@@H]4C(CO)(CO)CC[C@]4(C)C[C@]132 | 2 | 32 | 32 |
